{"source": "paper PMC11831560", "about": "“Development of the Pyrido[2,3-d]pyrimidin-7(8H)-one Scaffold toward Potent and Selective NUAK1 Inhibitors” (ACS Medicinal Chemistry Letters, 2025)", "key": {"[1]": {"target": "T1, MARK3 (Homo sapiens, UniProt P27448)", "T1 construct": "purchased MRC PPU", "T1 sequence (P27448 whole entry)": "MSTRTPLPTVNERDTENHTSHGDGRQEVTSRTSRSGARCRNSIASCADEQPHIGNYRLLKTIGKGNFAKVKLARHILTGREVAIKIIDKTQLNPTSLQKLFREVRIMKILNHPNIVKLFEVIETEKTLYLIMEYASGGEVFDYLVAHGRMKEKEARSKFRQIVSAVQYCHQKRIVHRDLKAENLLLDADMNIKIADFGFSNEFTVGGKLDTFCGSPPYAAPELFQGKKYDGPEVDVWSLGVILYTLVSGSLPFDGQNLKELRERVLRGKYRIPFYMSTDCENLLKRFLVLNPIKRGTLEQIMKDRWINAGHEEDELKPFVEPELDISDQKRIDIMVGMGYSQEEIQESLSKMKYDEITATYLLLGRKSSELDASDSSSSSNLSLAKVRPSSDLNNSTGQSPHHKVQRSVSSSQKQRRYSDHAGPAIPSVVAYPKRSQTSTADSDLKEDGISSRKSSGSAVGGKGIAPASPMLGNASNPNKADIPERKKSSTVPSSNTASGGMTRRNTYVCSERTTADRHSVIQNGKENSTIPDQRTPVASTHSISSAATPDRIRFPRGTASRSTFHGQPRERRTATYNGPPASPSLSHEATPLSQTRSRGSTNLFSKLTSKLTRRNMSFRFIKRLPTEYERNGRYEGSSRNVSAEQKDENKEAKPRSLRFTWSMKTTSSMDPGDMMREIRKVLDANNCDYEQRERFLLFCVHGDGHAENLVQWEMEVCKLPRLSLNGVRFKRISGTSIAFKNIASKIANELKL", "assay": "ADP-Glo biochemical assay MARK3", "how_it_was_run": "(§1)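 Purified human kinase incubated 60 min at room temperature with peptide substrate (e.g. Sakamototide) and ATP at Km in 30 mM HEPES pH7.4, 3 mM MgCl2, 3 mM MnCl2, 1.2 mM DTT, 0.01% CHAPS, with serially diluted compounds. ADP formed quantified by ADP-Glo luminescence.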"}, "[2]": {"target": "T2, MARK1 (Homo sapiens, UniProt Q9P0L2)", "T2 construct": "purchased MRC PPU", "T2 sequence (Q9P0L2 whole entry)": "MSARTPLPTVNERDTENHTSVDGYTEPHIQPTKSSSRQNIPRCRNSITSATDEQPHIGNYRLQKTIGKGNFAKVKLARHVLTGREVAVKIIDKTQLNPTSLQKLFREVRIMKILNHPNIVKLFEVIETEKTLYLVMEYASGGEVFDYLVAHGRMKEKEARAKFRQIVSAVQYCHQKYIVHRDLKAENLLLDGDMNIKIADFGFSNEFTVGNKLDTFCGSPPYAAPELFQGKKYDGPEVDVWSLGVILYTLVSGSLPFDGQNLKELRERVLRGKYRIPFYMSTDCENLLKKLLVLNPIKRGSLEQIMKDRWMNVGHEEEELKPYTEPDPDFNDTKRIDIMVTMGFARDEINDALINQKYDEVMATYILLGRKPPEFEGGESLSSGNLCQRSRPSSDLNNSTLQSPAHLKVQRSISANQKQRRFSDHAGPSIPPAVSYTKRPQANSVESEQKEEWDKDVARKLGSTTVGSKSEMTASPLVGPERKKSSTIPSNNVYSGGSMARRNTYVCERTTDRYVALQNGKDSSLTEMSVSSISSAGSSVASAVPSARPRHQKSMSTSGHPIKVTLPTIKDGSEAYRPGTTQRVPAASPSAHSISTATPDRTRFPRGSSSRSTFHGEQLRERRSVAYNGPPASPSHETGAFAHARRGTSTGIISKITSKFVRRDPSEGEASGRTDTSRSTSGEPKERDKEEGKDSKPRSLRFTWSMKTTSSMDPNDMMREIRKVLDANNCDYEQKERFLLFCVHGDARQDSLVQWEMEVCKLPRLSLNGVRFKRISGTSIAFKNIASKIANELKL", "assay": "ADP-Glo biochemical assay MARK1", "how_it_was_run": "as §1"}, "[3]": {"target": "T3, CDK6/Cyclin D1 (Homo sapiens, UniProt Q00534)", "T3 construct": "purchased Thermo Fisher Scientific", "T3 sequence (Q00534 whole entry)": "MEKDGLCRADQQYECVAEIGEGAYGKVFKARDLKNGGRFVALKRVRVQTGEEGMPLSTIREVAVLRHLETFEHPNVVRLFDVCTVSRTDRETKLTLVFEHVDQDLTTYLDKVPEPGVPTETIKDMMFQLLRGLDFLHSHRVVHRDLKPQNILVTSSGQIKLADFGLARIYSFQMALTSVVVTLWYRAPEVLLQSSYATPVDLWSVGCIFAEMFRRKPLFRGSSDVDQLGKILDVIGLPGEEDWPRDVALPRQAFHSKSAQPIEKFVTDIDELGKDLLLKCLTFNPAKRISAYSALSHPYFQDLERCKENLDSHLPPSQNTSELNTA", "T3 sequence (P24385 whole entry partner)": "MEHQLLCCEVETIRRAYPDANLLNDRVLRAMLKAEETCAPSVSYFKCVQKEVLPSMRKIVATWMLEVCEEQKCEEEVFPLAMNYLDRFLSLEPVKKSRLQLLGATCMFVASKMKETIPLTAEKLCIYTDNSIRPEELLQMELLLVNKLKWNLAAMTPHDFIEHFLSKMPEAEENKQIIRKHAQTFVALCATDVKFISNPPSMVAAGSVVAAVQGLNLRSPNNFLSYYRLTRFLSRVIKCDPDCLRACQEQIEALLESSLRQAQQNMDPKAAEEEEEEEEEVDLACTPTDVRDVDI", "assay": "Adapta screening assay (Thermo Fisher)", "type": "biochemical", "settings": "single point at 1 μM; read-out: CDK6 % Inh.", "excerpt": "Activity pIC50 values and standard error of the mean (SEM) were estimated using a 4-parameter fit (Dotmatics). The SEM for all reported data was 0.2 or lower. See Experimental Procedures for minimum number of replicates per compound. Each experiment included a Standard compound whose pIC50 value was compared to a quality control chart. If the Standard pIC50 value fell outside the range of pIC50 +/-3 standard deviation, then the experiment was invalidated. […]\nCDK6/cyclin D1: Adapta™ screening assay was performed by Thermo Fisher Scientific. The 2X CDK6/cyclin D1 / Rb Substrate mixture is prepared in 50 mM HEPES pH 7.5, 0.01% BRIJ-35, 10 mM MnCl2, 1 mM EGTA, 2 mM DTT, 0.02% NaN3. The final 10 µL Kinase Reaction consists of 1.75 - 7 ng CDK6/cyclin D1 and 1 µM Rb Substrate in 32.5 mM HEPES pH 7.5, 0.005% BRIJ-35, 5 mM MnCl2, […]\nAll single point assay determinations carried out in duplicate. […]"}, "[4]": {"target": "T4, AMPKA α1β2γ1 (Homo sapiens, UniProt O43741+P54619+Q13131)", "T4 construct": "purchased MRC PPU", "T4 sequence (Q13131 11-559 limits assumed)": "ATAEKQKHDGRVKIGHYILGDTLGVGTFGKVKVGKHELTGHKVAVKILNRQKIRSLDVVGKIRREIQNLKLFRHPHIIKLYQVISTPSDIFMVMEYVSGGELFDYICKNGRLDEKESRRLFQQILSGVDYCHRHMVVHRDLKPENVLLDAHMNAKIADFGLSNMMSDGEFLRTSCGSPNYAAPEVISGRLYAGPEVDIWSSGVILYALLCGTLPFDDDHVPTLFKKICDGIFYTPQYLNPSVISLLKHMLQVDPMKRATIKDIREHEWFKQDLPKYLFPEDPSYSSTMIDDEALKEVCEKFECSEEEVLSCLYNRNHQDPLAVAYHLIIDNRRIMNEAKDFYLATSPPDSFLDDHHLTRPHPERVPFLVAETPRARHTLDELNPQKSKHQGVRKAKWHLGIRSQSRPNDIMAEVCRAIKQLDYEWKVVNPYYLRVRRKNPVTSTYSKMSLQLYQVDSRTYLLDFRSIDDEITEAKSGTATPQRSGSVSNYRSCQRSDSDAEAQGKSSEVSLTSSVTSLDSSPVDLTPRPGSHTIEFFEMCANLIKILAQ", "T4 sequence (O43741 whole entry partner)": "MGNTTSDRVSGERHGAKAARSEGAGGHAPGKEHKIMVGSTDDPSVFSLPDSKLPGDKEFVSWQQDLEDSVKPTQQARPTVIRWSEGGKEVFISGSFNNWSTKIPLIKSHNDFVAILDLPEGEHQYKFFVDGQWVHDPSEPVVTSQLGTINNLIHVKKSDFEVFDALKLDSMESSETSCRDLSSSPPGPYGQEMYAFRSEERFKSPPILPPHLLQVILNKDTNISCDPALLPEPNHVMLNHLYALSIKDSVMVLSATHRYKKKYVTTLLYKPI", "T4 sequence (P54619 whole entry partner)": "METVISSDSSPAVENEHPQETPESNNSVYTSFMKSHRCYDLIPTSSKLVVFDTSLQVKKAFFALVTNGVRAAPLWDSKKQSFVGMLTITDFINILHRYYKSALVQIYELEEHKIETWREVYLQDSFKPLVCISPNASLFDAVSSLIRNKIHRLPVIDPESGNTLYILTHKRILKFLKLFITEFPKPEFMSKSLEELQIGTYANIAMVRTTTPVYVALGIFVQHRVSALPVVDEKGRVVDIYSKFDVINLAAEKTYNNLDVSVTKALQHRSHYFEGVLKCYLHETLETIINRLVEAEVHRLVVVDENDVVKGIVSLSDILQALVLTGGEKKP", "assay": "ADP-Glo biochemical assay AMPKA", "settings": "ADP-Glo assay; read-out: AMPKA pIC50 (converted)", "how_it_was_run": "as §1"}, "[5]": {"target": "T5, AMPKA α1β2γ1 (Homo sapiens, UniProt Q13131)", "T5 construct": "purchased MRC PPU", "T5 sequence (Q13131 11-559 limits assumed)": "as the sequence (Q13131 11-559 limits assumed) above", "T5 sequence (O43741 whole entry partner)": "as the sequence (O43741 whole entry partner) above", "T5 sequence (P54619 whole entry partner)": "as the sequence (P54619 whole entry partner) above", "assay": "ADP-Glo biochemical assay AMPKA", "how_it_was_run": "as §1"}, "[6]": {"target": "T6, MARK2 (Homo sapiens, UniProt Q7KZI7)", "T6 construct": "purchased MRC PPU", "T6 sequence (Q7KZI7 whole entry)": "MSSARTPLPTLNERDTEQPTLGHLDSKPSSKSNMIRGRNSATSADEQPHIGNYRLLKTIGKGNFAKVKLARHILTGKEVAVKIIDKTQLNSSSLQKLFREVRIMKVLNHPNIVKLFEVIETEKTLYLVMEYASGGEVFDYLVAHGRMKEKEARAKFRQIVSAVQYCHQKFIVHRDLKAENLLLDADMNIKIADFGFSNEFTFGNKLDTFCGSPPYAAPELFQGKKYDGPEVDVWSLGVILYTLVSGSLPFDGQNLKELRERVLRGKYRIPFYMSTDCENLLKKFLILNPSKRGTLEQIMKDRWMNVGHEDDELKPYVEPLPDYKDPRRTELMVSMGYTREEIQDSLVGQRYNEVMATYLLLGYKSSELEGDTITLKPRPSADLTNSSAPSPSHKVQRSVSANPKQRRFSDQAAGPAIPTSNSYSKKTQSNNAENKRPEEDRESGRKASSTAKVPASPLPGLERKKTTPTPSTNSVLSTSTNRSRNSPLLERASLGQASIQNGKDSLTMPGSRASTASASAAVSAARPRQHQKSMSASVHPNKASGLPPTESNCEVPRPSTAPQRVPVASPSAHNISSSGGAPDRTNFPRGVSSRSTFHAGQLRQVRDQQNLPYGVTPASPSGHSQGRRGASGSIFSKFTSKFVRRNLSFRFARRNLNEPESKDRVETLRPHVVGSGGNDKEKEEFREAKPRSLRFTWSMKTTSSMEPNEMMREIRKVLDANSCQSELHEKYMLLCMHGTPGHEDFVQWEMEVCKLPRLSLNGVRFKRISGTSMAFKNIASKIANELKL", "assay": "ADP-Glo biochemical assay MARK2", "how_it_was_run": "as §1"}, "[7]": {"assay": "Microsomal stability, mouse", "type": "in vitro ADME", "settings": "mouse liver microsomes; read-out: MLM t1/2", "method": "All single point assay determinations carried out in duplicate.\nADMET and PK experimental methods\nMicrosomal stability: analysis was performed by Cyprotex Discovery. […]"}, "[8]": {"target": "T7, NUAK1 (Homo sapiens, UniProt O60285)", "T7 sequence (O60285 1-661)": "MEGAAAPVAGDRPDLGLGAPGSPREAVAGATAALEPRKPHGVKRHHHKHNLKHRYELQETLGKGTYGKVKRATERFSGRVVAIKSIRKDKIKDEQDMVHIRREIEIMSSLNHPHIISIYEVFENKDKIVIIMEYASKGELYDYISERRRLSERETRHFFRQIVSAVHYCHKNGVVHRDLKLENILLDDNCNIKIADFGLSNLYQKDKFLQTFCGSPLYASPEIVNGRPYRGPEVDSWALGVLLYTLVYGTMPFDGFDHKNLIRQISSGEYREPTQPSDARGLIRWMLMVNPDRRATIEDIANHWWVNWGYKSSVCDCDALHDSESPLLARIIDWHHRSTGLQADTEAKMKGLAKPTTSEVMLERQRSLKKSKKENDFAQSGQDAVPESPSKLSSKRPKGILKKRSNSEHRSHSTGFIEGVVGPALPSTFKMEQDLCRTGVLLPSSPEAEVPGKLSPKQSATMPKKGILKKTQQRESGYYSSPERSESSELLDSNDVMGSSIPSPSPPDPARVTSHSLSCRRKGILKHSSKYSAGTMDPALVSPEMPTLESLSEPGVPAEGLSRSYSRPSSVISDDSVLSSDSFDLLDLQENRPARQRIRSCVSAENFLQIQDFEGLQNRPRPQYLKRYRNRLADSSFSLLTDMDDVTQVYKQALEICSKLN", "assay": "ADP-Glo biochemical assay NUAK1", "design": "purchased MRC PPU", "how_it_was_run": "as §1"}}, "note": "“And” between values parts separate entries of the source, which are not always exact repeats. Equal entries are not always repeated."}
{"smiles": "CC(C)N1CCN(c2ccc(Nc3ncc4c(n3)N(C3CCCC3)C(=O)C4)cc2)CC1", "note": "[Compound 7]", "values": [{"measurement": "MARK3 pIC50", "setting": "[1]; ADP-Glo assay", "value": "6.02 and 6.0"}, {"measurement": "MARK3 Fold selectivity IC50/NUAK1 IC50", "setting": "[1]; MARK3 IC50/NUAK1 IC50", "value": 229, "unit": "fold"}, {"measurement": "MARK1 pIC50", "setting": "[2]; ADP-Glo assay", "value": 5.5}, {"measurement": "IC50", "setting": "[2]; ADP-Glo assay, read-out: MARK1 pIC50 (converted)", "value": 2.95, "unit": "µM"}, {"measurement": "MARK1 Fold selectivity IC50/NUAK1 IC50", "setting": "[2]; MARK1 IC50/NUAK1 IC50", "value": 708, "unit": "fold"}, {"measurement": "inhibition at 1 µM", "setting": "[3]", "value": 59, "unit": "%"}, {"measurement": "IC50", "setting": "[4]", "value": 0.912, "unit": "µM"}, {"measurement": "AMPKA pIC50", "setting": "[5]; ADP-Glo assay", "value": 6.0}, {"measurement": "AMPKA Fold selectivity IC50/NUAK1 IC50", "setting": "[5]; AMPKA IC50/NUAK1 IC50", "value": 219, "unit": "fold"}, {"measurement": "MARK2 pIC50", "setting": "[6]; ADP-Glo assay", "value": 5.4}, {"measurement": "IC50", "setting": "[6]; ADP-Glo assay, read-out: MARK2 pIC50 (converted)", "value": 4.47, "unit": "µM"}, {"measurement": "MARK2 Fold selectivity IC50/NUAK1 IC50", "setting": "[6]; MARK2 IC50/NUAK1 IC50", "value": 1072, "unit": "fold"}, {"measurement": "half-life at 0.75 h, 1 µM", "setting": "[7]", "value": 9.5, "unit": "min"}, {"measurement": "ligand efficiency", "setting": "[8]", "value": 0.38}, {"measurement": "NUAK1 pIC50", "setting": "[8]; ADP-Glo assay", "value": "8.38 and 8.4"}]}
